In assay [1] the target is T1, Thermolysin (Bacillus thermoproteolyticus, UniProt P00800).
T1 sequence (P00800 whole entry): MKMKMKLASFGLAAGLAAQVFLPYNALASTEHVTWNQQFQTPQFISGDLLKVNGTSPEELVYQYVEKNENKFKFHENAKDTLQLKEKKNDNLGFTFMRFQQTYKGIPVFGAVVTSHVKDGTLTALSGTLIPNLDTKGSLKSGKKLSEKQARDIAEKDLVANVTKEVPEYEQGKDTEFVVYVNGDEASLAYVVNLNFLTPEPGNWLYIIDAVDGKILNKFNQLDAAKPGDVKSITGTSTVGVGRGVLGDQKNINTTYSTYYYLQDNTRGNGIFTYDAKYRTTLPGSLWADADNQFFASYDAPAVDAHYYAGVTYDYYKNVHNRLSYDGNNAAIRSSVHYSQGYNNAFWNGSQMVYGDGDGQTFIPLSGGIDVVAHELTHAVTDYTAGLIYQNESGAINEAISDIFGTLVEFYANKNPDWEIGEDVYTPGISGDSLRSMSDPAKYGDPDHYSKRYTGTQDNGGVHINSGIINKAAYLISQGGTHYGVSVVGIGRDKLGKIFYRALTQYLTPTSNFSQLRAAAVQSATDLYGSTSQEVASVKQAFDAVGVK
Put plainly: Inhibition of Bacillus thermoproteolyticus thermolysin using […] as substrate at pH 7.5 after 15 mins by Henderson plot analysis.

Assay [2] has as its target T1, Thermolysin. Nature of the assay: Inhibition of Bacillus thermoproteolyticus thermolysin.
Assay [3] in a line: Inhibition of endothelin-converting enzyme (unknown origin). Set-up: species or system Homo sapiens.
The target in assay [4] is T1, Thermolysin. Put plainly: Binding affinity to Bacillus thermoproteolyticus thermolysin at pH 7.5 after 15 mins by fluorescence spectrophotometry.

Structures are written as SMILES.

Broadly, the Ki is a measure of affinity in units of concentration, obtained from inhibition or displacement. For orientation: IC50 means the concentration needed to halve the response being measured. Take `CC(C)C[C@H](NP(=O)(O)O[C@@H]1O[C@@H](C)[C@H](O)[C@@H](O)[C@H]1O)C(=O)N[C@@H](Cc1c[nH]c2ccccc12)C(=O)O`: the Ki came out at 30 nM on Thermolysin [1] and 32 nM at Thermolysin [2]. The same compound showed an IC50 in assay [3] of 690 nM.

As usually defined, the Kd is the free concentration of one partner at which half of the binding sites on the other are occupied at equilibrium, for simple one-to-one binding. A low value points to a tighter complex. In the case of `CC(C)C[C@H](NP(=O)(O)O[C@H]1O[C@@H](C)[C@H](O)[C@@H](O)[C@H]1O)C(=O)N[C@@H](Cc1c[nH]c2ccccc12)C(=O)O`, the Kd at Thermolysin [4] amounted to 210 nM. This compound also registered a Ki on Thermolysin [1] of 280 nM.

Values taken from ChEMBL document CHEMBL2440108, “Synthesis and enzymatic evaluation of phosphoramidon and its β anomer: Anomerization of α-l-rhamnose triacetate upon phosphitylation” (Bioorg Med Chem, 2013).
